In general, IC50 refers to the midpoint of a concentration-inhibition curve.

The record followed here is ChEMBL document CHEMBL4699594, “Antiplasmodial Alkaloids from the Australian Bryozoan Amathia lamourouxi” (J Nat Prod, 2020).

Calls of active or inactive are those of the source. No cut-off for these calls is given here.

Series [1] concerns HEK293. Kind of series: Cytotoxicity against human HEK293 cells assessed as reduction in cell viability at 0.1 uM after 72 hrs by resazurin dye based assay. The conditions noted are these: hek293, 72 h.
A short description of series [2]: Selectivity index, ratio of IC50 for cytotoxicity against human HEK293 cells to IC50 for antiplasmodial activity against chloroquine-resistant Plasmodium falciparum Dd2 ring stage. In kind it is toxicity, cell-based. The conditions noted are these: read-out: Ratio IC50.
Series [3] has as its system Plasmodium falciparum. The series is described as follows: Antiplasmodial activity against chloroquine-sensitive Plasmodium falciparum 3D7 ring stage incubated for 72 hrs by DAPI-staining based imaging analysis. It counts as functional, organism-based. To be noted: 3D7, 72 h.
The nature of series [4]: Selectivity index, ratio of IC50 for cytotoxicity against human HEK293 cells to IC50 for antiplasmodial activity against chloroquine-sensitive Plasmodium falciparum 3D7 ring stage. In kind it is toxicity, cell-based. To be noted: read-out: Ratio IC50.
Series [5] deals with HEK293. Kind of series: Cytotoxicity against human HEK293 cells assessed as reduction in cell viability at 4 uM after 72 hrs by resazurin dye based assay relative to control. To be noted: hek293, 72 h.
The test system of series [6] is Plasmodium falciparum. Kind of series: Antiplasmodial activity against chloroquine-resistant Plasmodium falciparum Dd2 ring stage incubated for 72 hrs by DAPI-staining based imaging analysis. In kind it is functional, organism-based. To be noted: Dd2, 72 h.
The test system of series [7] is HEK293. The series is described as follows: Cytotoxicity against human HEK293 cells assessed as reduction in cell viability at 40 uM after 72 hrs by resazurin dye based assay. To be noted: hek293, 72 h.
For series [8], the system named is HEK293. Kind of series: Cytotoxicity against human HEK293 cells assessed as reduction in cell viability after 72 hrs by resazurin dye based assay. The conditions noted are these: HEK293, 72 h.
The subject of series [9] is Plasmodium falciparum. Kind of series: Antiplasmodial activity against chloroquine-resistant Plasmodium falciparum Dd2 ring stage at 40 uM incubated for 72 hrs by DAPI-staining based imaging analysis. In kind it is functional, organism-based.
Series [10] deals with Plasmodium falciparum. Kind of series: Antiplasmodial activity against chloroquine-sensitive Plasmodium falciparum 3D7 ring stage at 40 uM incubated for 72 hrs by DAPI-staining based imaging analysis. In kind it is functional, organism-based.

With `C[C@H]1[C@@H](O)O[C@@H]2O[C@@]3(C)CC[C@H]4[C@H](C)CC[C@@H]1[C@@]24OO3` [ARTENIMOL], the Activity result in series [1] was “Non-Toxic”. In addition, the selectivity ratio in [2] was 57; in [4] it was 62. Further, the IC50 in series [3] was determined as 2 nM.
Regarding `CCN(CC)CCCC(C)Nc1ccnc2cc(Cl)ccc12` (stereo not drawn) [CHLOROQUINE], the Activity in [5] was 67%.
Regarding `COc1cc(CCN(C)CCCN(C)C(=O)[C@H](CCN(C)CCc2cc(OC)c(Br)cc2Br)N(C)C)c(Br)cc1Br`, the IC50 in series [6] was 750 nM; in series [3] it was 610 nM. Besides, the Activity entry in series [7] is listed as “Non-Toxic”. The selectivity ratio was 53 in series [2] and 66 in series [4].
`CNCCc1cc(OC)c(Br)cc1Br.O=C(O)C(F)(F)F`: the Activity entry in series [7] is on record as “Non-Toxic”. This compound displayed an IC50 in series [3] of 11000 nM. For the same compound, the selectivity ratio in series [4] was found to be 4.
For `CN[C@@H](CCN(C)CCc1cc(OC)c(Br)cc1Br)C(=O)N(C)CCCN(C)CCc1cc(OC)c(Br)cc1Br`, the IC50 in [6] worked out at 850 nM; in series [8], 11000 nM; in series [3], 570 nM. Also, the values for the selectivity ratio in [2] and in [4] were 13 and 20, respectively.
`COc1ccc(C[C@H](N)C(=O)N[C@H]2[C@@H](O)[C@H](n3cnc4c(N(C)C)ncnc43)O[C@@H]2CO)cc1` [PUROMYCIN]: the IC50 in series [6] came to 68 nM; in series [8], 810 nM. Also, the results for the selectivity ratio in series [2] and in series [4] were 585 and 353, respectively.
For `COc1cc(CCN(C)CCCN(C)C)c(Br)cc1Br`, the IC50 in series [8] came to 17000 nM; in series [3], 1700 nM. The selectivity ratio in series [4] came to 10.
As to `Cn1c(Br)c(C=O)c2cc(Br)ccc21`, the result in series [9] and in series [10] was inactive. Moreover, in [7], the Activity entry is given as “Non-Toxic”.
As to `CN[C@@H](CCN(C)CCc1cc(OC)c(Br)cc1Br)C(=O)NCCCN(C)CCc1cc(OC)c(Br)cc1Br`, the results for the IC50 in [6] and in series [3] were 1900 nM and 1600 nM, respectively. The Activity result in [7] is “Non-Toxic”. For the same compound, the selectivity ratio in series [2] came to 21; in [4] it was 25.
